Target: BRD4 (Homo sapiens, UniProt O60885)
Experiment: Time Resolved Fluorescence Resonance Energy Transfer (TR-FRET) binding assay, BRD4
Details: one of the FRET assays described; read-out: FRET BRD4 IC50

`[2H]C([2H])([2H])c1nnn(C)c1-c1cnc2c3ccc(C(C)(C)O)cc3n(C(c3ncccc3F)C3CCOCC3)c2c1` (single isomer, unassigned) [Example 316] was tested, and the IC50 was < 5 nM.
With `COc1cc(C(C)(C)O)cc2c1c1ncc(-c3c(C)nnn3C)cc1n2[C@H](c1ccccc1F)C1CCOCC1` [Example 274] the IC50 was < 5 nM.
With `Cc1cc(C(C2CCOCC2)n2c3cc(-c4c(C)nnn4C)cnc3c3ccc(C(C)(C)O)c(F)c32)no1` (single isomer, unassigned) [Example 290] the IC50 was < 5 nM.
With `CCc1nnn(C)c1-c1cnc2c3ccc(C(C)(C)O)cc3n([C@H](c3ccccc3)C3CCOCC3)c2c1` [Example 388, 2-[3-(4-Ethyl-1-methyl-1H-1,2,3-triazol-5-yl)-5-[(S)-oxan-4-yl(phenyl)methyl]-5H-pyrido[3,2-b]indol-7-yl]propan-2-ol] the IC50 was < 5 nM.
`Cn1nnc(CO)c1-c1cnc2c3ccc(S(C)(=O)=O)cc3n([C@H](c3ccccc3)C3CCOCC3)c2c1` [Example 179, (5-{7-Methanesulfonyl-5-[(S)-oxan-4-yl(phenyl)methyl]-5H-pyrido[3,2-b]indol-3-yl}-1-methyl-1H-1,2,3-triazol-4-yl)methanol] was tested, and the IC50 was < 5 nM.
In the case of `Cc1noc(C)c1-c1cnc2c3ccc(S(C)(=O)=O)cc3n([C@@H](c3ccccc3F)C3CCOCC3)c2c1` [Example 174], the IC50 is reported as < 5 nM.
In the case of `COc1ccnc([C@H](C2CCOCC2)n2c3cc(CS(C)(=O)=O)ccc3c3ncc(-c4c(C)nnn4C)cc32)c1` [Example 336], the IC50 is reported as < 5 nM.
`Cc1nnn(C)c1-c1cnc2c3c(F)cc(C(C)(C)O)cc3n(C(c3cc(F)ccc3F)C3CCOCC3)c2c1` (single isomer, unassigned) [Example 107, 2-{5-[(2,5-Difluorophenyl)(oxan-4-yl)methyl]-3-(dimethyl-1H-1,2,3-triazol-5-yl)-9-fluoro-5H-pyrido[3,2-b]indol-7-yl}propan-2-ol] was tested, and the IC50 was < 5 nM.
With `[2H]C([2H])([2H])c1nnn(C)c1-c1cnc2c3ccc(C(C)(C)O)c(F)c3n(C(c3ccc(F)cn3)C3CCOCC3)c2c1` (single isomer, unassigned) [Example 323] the IC50 was < 25 nM.
With `[2H]C([2H])([2H])c1nnn(C)c1-c1cnc2c3cc(F)c(C(C)(O)C4CC4)cc3n(C(c3cc(C)on3)C3CCOCC3)c2c1` (stereo not drawn) [Example 329] the IC50 was < 25 nM.
In the case of `Cc1oncc1-c1cnc2c3ccc(C(C)(C)O)cc3n(C(c3ccc(F)cc3)C3CCOCC3)c2c1` (single isomer, unassigned) [Example 41, 2-{5-[(4-Fluorophenyl)(oxan-4-yl)methyl]-3-(5-methyl-1,2-oxazol-4-yl)-5H-pyrido[3,2-b]indol-7-yl}propan-2-ol], the IC50 is reported as < 1500 nM.
For `Cc1nnn(C)c1-c1cnc2c3cc(F)c(C(C)(O)C4CC4)cc3n([C@H](c3ccccc3F)C3CCOCC3)c2c1` (single isomer, unassigned) [Example 447], the IC50 was < 5 nM.
In the case of `[2H]C([2H])([2H])c1nnn(C)c1-c1cnc2c3c(F)cc(S(C)(=O)=O)cc3n(C(c3ncccc3F)C3CCC(F)(F)CC3)c2c1` (stereo not drawn) [Example 211, 2-[(4,4-Difluorocyclohexyl)({9-fluoro-7-methanesulfonyl-3-[4-(^2H3)methyl-1-methyl-1H-1,2,3-triazol-5-yl]-5H-pyrido[3,2-b]indol-5-yl})methyl]-3-fluoropyridine], the IC50 is reported as < 5 nM.
`[2H]C([2H])([2H])c1nnn(C)c1-c1cnc2c3c(F)cc(S(C)(=O)=O)cc3n([C@H](c3ccc(F)cc3)C3CCOCC3)c2c1` [Example 201, 5-{9-Fluoro-5-[(S)-(4-fluorophenyl)(oxan-4-yl)methyl]-7-methanesulfonyl-5H-pyrido[3,2-b]indol-3-yl}-4-(^2H3)methyl-1-methyl-1H-1,2,3-triazole] was tested, and the IC50 was < 5 nM.
With `Cc1cc(C(C2CCOCC2)n2c3cc(C(C)(C)O)ccc3c3ncc(-c4c(C)nnn4C)cc32)n(C)n1` (single isomer, unassigned) [Example 342, 2-[3-(Dimethyl-1H-1,2,3-triazol-5-yl)-5-[(1,3-dimethyl-1H-pyrazol-5-yl)(oxan-4-yl)methyl]-5H-pyrido[3,2-b]indol-7-yl]propan-2-ol] the IC50 was < 25 nM.
In the case of `Cc1nocc1-c1cnc2c3ccc(C(C)(C)O)cc3n(C(c3ccc(F)cc3)C3CCOCC3)c2c1` (single isomer, unassigned) [Example 42, 2-{5-[(4-Fluorophenyl)(oxan-4-yl)methyl]-3-(3-methyl-1,2-oxazol-4-yl)-5H-pyrido[3,2-b]indol-7-yl}propan-2-ol], the IC50 is reported as < 25 nM.
In the case of `Cc1nnn(C)c1-c1cnc2c3cc(F)c(C(C)(O)C4CC4)cc3n([C@H](c3ccccc3F)C3CCOCC3)c2c1` (single isomer, unassigned) [Example 448], the IC50 is reported as < 5 nM.
`[2H]C([2H])([2H])c1nnn(C)c1-c1cnc2c3ccc(C(C)(C)O)cc3n(C(c3cc(C)on3)C3CCOCC3)c2c1` (stereo not drawn) [Example 308, 2-{5-[(5-Methyl-1,2-oxazol-3-yl)(oxan-4-yl)methyl]-3-[4-(^2H3)methyl-1-methyl-1H-1,2,3-triazol-5-yl]-5H-pyrido[3,2-b]indol-7-yl}propan-2-ol] was tested, and the IC50 was < 5 nM.
With `[2H]C([2H])([2H])c1nnn(C)c1-c1cnc2c3ccc(C(C)(C)O)cc3n(C(c3ccccc3)C3CCC(F)(F)CC3)c2c1` (stereo not drawn) [Example 204, 2-{5-[(4,4-Difluorocyclohexyl)(phenyl)methyl]-3-[4-(^2H3)methyl-1-methyl-1H-1,2,3-triazol-5-yl]-5H-pyrido[3,2-b]indol-7-yl}propan-2-ol] the IC50 was < 5 nM.
For `Cn1nncc1-c1cnc2c3ccc(C(C)(C)O)cc3n(C(c3ccc(F)cc3)C3CCOCC3)c2c1` (single isomer, unassigned) [Example 66, 2-{5-[(4-Fluorophenyl)(oxan-4-yl)methyl]-3-(1-methyl-1H-1,2,3-triazol-5-yl)-5H-pyrido[3,2-b]indol-7-yl}propan-2-ol], the IC50 was < 5 nM.
For `Cc1nnn(C)c1-c1cnc2c3cc(S(C)(=O)=O)ccc3n([C@H](c3ccccc3)C3CCOCC3)c2c1` [Example 375, 5-{8-Methanesulfonyl-5-[(S)-oxan-4-yl(phenyl)methyl]-5H-pyrido[3,2-b]indol-3-yl}-1,4-dimethyl-1H-1,2,3-triazole], the IC50 was < 5 nM.
With `[2H]C([2H])([2H])c1onc(C)c1-c1cnc2c3ccc(C(C)(C)O)cc3n([C@H](c3ccccc3F)C3CCOCC3)c2c1` [Example 285, 2-{5-[(S)-(2-Fluorophenyl)(oxan-4-yl)methyl]-3-[5-(^2H3)methyl-3-methyl-1,2-oxazol-4-yl]-5H-pyrido[3,2-b]indol-7-yl}propan-2-ol] the IC50 was < 5 nM.
For `[2H][C@@](c1ccccc1F)(C1CCOCC1)n1c2cc(C(C)(C)O)ccc2c2ncc(-c3c(C)nnn3C)cc21` [Example 92, 2-[3-(Dimethyl-1H-1,2,3-triazol-5-yl)-5-[(S)-oxan-4-yl(2-fluorophenyl)(^2H)methyl]-5H-pyrido[3,2-b]indol-7-yl]propan-2-ol], the IC50 was < 5 nM.
`[2H]C([2H])([2H])c1nnn(C)c1-c1cnc2c3cc(F)c(C(C)(C)O)c(F)c3n([C@H](c3ccccc3)C3CCOCC3)c2c1` [Example 452, 2-{6,8-Difluoro-3-[4-(^2H3)methyl-1-methyl-1H-1,2,3-triazol-5-yl]-5-[(S)-oxan-4-yl(phenyl)methyl]-5H-pyrido[3,2-b]indol-7-yl}propan-2-ol] was tested, and the IC50 was < 5 nM.
